Results reported in BindingDB's records for doi:10.1016/j.bmcl.2006.12.028 (Sapienza University of Rome, 2007).

What was measured:
[1] = molecular target: T1, Histone deacetylase 2b (Zea mays, UniProt Q94F81); test: Inhibition of maize HD2 (mean)
T1 sequence (Q94F81 whole entry): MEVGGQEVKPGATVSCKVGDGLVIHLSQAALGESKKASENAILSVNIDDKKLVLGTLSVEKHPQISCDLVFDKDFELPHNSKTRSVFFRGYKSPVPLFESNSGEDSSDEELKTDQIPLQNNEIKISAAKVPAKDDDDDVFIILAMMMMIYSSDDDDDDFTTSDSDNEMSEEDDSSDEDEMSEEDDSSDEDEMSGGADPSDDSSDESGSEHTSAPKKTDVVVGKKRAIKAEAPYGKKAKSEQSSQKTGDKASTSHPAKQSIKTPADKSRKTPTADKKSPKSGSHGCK

[2] = molecular target: Histone deacetylase 1 (Mus musculus, UniProt O09106); test: Inhibition of mouse HDAC1 (mean)
Histone deacetylase 1, sequence (O09106 whole entry): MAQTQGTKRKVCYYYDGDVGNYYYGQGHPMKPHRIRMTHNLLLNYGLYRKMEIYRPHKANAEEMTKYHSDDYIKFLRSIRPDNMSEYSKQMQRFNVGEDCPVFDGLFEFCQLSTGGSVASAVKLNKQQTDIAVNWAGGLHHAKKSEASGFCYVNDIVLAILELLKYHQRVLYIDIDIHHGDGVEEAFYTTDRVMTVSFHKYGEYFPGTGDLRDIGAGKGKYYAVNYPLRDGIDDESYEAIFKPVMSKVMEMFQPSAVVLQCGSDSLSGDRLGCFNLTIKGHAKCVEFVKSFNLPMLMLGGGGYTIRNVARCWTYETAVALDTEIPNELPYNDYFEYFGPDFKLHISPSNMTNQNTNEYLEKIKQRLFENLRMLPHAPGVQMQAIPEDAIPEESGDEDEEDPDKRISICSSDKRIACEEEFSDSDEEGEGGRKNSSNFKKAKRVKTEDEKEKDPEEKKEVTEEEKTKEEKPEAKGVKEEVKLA

[3] = molecular target: Histone deacetylase (Zea mays, UniProt Q9ZTP8); test: Inhibition of maize HD1-B (mean)
Histone deacetylase, sequence (Q9ZTP8 whole entry): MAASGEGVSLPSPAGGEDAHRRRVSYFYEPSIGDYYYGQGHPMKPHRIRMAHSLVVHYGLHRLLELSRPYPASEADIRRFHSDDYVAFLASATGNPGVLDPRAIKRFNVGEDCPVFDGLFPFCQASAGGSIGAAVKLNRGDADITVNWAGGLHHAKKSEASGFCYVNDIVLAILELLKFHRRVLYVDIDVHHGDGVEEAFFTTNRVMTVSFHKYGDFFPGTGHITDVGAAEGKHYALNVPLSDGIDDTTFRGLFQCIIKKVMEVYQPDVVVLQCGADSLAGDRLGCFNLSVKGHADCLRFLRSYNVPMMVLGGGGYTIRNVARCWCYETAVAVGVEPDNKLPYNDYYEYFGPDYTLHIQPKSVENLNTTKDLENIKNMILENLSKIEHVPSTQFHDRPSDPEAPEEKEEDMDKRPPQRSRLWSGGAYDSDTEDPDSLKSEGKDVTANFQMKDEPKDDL

[4] = molecular target: Histone deacetylase HD1-A (Zea mays); test: Inhibition of maize HD1-A (mean)

| Structure (SMILES) | IC50 [1] [µM] | IC50 [2] [µM] | IC50 [3] [µM] | IC50 [4] [µM] |
| --- | --- | --- | --- | --- |
| O=C(CCCCSc1nc(-c2cccc(Cl)c2)cc(=O)[nH]1)NO | 0.017 | 0.0367 | 0.0113 |  |
| O=C(CCCCSc1nc(-c2ccc(Cl)cc2)cc(=O)[nH]1)NO | 0.017 | 0.0509 | 0.0113 | 0.00283 |
| O=C(CCCCCCC(=O)Nc1ccccc1)NO [Zolinza] | 0.0492 |  |  |  |
